Experimental data as given in PMC8463504 (Journal of inorganic biochemistry, 2021).
Like-named read-outs stand apart in the source and are kept apart here.

Legend:
[1] = format: physicochemical; details: for % folded protein: below pH 4.4; for pKa of acid denaturation: sigmoidal-Boltzmann fit of % folded protein vs pH
[2] = test system: His64; test: other; details: ferric heme-bound fluoride complex; cited from earlier work
[3] = cited from earlier work
[4] = molecular target: T1, HbIII (Phacoides pectinatus, UniProt P41262); details: read-out: Equilibrium dissociation constant (Kd), pH 7.5; cited from earlier work
T1 sequence (P41262 1-153): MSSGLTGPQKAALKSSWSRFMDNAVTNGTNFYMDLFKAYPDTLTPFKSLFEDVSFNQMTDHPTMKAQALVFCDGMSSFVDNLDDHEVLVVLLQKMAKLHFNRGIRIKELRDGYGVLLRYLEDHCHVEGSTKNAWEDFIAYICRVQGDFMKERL

[5] = molecular target: T2, HbII (Phacoides pectinatus, UniProt P41261); details: read-out: Equilibrium dissociation constant (Kd), pH 7.5; cited from earlier work
T2 sequence (P41261 1-151): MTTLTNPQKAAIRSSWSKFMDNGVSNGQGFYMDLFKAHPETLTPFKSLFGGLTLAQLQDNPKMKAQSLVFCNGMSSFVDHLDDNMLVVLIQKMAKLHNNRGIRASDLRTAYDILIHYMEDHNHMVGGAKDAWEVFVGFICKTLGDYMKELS

[6] = molecular target: T3, HbI (Phacoides pectinatus, UniProt P41260); details: cited from earlier work
T3 sequence (P41260 whole entry): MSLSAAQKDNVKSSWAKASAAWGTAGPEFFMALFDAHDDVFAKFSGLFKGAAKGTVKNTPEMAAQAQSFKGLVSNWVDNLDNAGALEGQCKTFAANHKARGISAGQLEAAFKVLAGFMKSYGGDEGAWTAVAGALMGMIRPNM

[7] = molecular target: HHMb; details: read-out: Equilibrium dissociation constant (Kd), pH 7.5; cited from earlier work
[8] = molecular target: T2, HbII; details: read-out: Equilibrium dissociation constant (Kd), pH 7.5; cited from earlier work; remark: listed apart in the source
[9] = molecular target: T1, HbIII; details: read-out: Equilibrium dissociation constant (Kd), pH 7.5; cited from earlier work; remark: listed apart in the source
[10] = molecular target: T3, HbI; details: read-out: Equilibrium dissociation constant (Kd), pH 7.5; cited from earlier work
[11] = molecular target: T1, HbIII; test: biochemical
[12] = molecular target: adult hemoglobin (A-Hb) (Homo sapiens, UniProt P68871+P69905); test: biochemical; details: Measured fluoride binding dissociation constant (Kd)
Chain of adult hemoglobin (A-Hb) (P69905 2-142 limits assumed): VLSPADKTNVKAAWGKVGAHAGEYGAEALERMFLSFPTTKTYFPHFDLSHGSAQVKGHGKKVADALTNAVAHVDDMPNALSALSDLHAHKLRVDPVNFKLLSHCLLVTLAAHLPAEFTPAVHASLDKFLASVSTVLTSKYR
Chain of adult hemoglobin (A-Hb) (P68871 2-147 limits assumed): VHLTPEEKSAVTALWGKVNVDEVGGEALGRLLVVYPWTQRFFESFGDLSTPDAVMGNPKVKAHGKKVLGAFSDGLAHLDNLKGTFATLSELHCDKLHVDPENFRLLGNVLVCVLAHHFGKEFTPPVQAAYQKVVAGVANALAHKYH

[13] = molecular target: T2, HbII; test: biochemical
[14] = molecular target: T3, HbI; details: pH 4 to 7 range
[15] = molecular target: horse heart myoglobin (Mb) (Equus caballus, UniProt P68082); test: biochemical
Chain of horse heart myoglobin (Mb) (P68082 whole entry): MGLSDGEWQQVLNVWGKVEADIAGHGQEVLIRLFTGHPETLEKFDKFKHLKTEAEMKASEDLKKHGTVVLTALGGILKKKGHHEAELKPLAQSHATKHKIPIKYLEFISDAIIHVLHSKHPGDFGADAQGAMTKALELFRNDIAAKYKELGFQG

[16] = molecular target: T3, HbI; test: biochemical; details: Measured fluoride binding dissociation constant (Kd), pH 5.0
[17] = Equilibrium dissociation constant (Kd), pH 7.5
[18] = Measured fluoride binding dissociation constant (Kd), pH 5.0
[19] = Measured fluoride binding dissociation constant (Kd), pH 7.0

With “A-Hb: Adult hemoglobin purchased from Sigma-Aldrich” as the molecule, how does the “% folded protein” value [1] read?
Its value is “less than 50%”.

What about the “pKa of acid denaturation” value [1] of the same molecule?
Its value is 4.4.

For “Myoglobin (quoted literature values; species not stated in this article)”, which pKa [2] is on record?
The pKa was 5.3–5.7.

For `S` [H2S, Hydrogen sulfide], which “pKa (H2S/HS^− equilibrium)” value [3] is on record?
Its value is 7.0.

What about the Kd [4] of the same molecule?
Its Kd is > 0.016 mM.

What about the Kd [5] of the same molecule?
Its Kd is 0.0145 mM.

What about the “Affinity of HbI for H2S relative to HbII and HbIII” value ([6]; HbI greater than HbII and HbIII) of the same molecule?
Its value is 4,000 times.

And the Kd ([6]; read-out: Equilibrium dissociation constant (Kd), HbI, pH 7.5)?
The Kd was 3.4 nM.

For `O=O` [O2, oxygen], which Kd [7] is on record?
Its Kd is 0.0013 mM.

And the Kd [8]?
Its Kd is 0.00028 mM.

What about the Kd [9] of the same molecule?
The Kd was 0.00026 mM.

And the Kd [10]?
Its Kd is ~0.0004 mM.

Which Kd ([11]; Apparent Kd from non-linear fit, above pH 12) does the source give for `F` [fluoride, sodium fluoride] here?
The Kd was 4 mM.

And the Kd [11, 17]?
The Kd was 2.9 mM.

And the Kd [11, 18]?
The Kd was 0.5 ± 0.332 mM.

What about the Kd [11, 19] of the same molecule?
The Kd was 3.1 ± 0.37 mM.

What about the Kd ([12]; pH 5.0) of the same molecule?
Its Kd is 9.3 ± 5.8 mM.

And the Kd ([12]; pH 7.0)?
The Kd was 33 ± 4 mM.

And the Kd [13, 17]?
Its Kd is 3.7 mM.

And the Kd [13, 18]?
Its Kd is 0.33 ± 0.067 mM.

And the Kd [13, 19]?
The Kd was 1 ± 0.156 mM.

What about the “Fluoride affinity in HbI, lower than the other studied heme proteins” value [14] of the same molecule?
The value was “about two orders of magnitude”.

And the Kd ([15]; Equilibrium dissociation constant (Kd), HHMb, pH 7.5)?
Its Kd is 41 mM.

What about the Kd ([15]; Measured fluoride binding dissociation constant (Kd), Mb, pH 5.0) of the same molecule?
The Kd was 3 ± 0.82 mM.

And the Kd ([15]; Measured fluoride binding dissociation constant (Kd), Mb, pH 7.0)?
Its Kd is 25 ± 2.8 mM.

And the Kd [16]?
Its Kd is 100 ± 61 mM.

B1: Mb: horse heart (methods: horse skeletal muscle) myoglobin purchased from Sigma-Aldrich (protein, UniProt P68082 2-154, looked up)
Myoglobin: GLSDGEWQQVLNVWGKVEADIAGHGQEVLIRLFTGHPETLEKFDKFKHLKTEAEMKASEDLKKHGTVVLTALGGILKKKGHHEAELKPLAQSHATKHKIPIKYLEFISDAIIHVLHSKHPGDFGADAQGAMTKALELFRNDIAAKYKELGFQG
Which results are given for B1?
% folded protein [1]: less than 50%; pKa of acid denaturation [1]: 4.4
